Experimental data as given in patent publication US9394295B2, “Antibacterial homopiperidinyl substituted 3,4-dihydro-1H-[1,8]naphthyridinones” (Janssen Sciences Ireland UC, priority 2011, dated 2016).
In brackets after ≈: the same amount, converted by molar mass.

Assays:
[1] = target: T1, S. aureus ATCC 29213 FabI (Staphylococcus aureus, UniProt Q6GI75); test: Staphylococcus aureus FabI enzyme inhibition assay; assay type: biochemical; conditions: 30 minutes at room temperature, NADH consumption
T1 sequence (Q6GI75 1-256): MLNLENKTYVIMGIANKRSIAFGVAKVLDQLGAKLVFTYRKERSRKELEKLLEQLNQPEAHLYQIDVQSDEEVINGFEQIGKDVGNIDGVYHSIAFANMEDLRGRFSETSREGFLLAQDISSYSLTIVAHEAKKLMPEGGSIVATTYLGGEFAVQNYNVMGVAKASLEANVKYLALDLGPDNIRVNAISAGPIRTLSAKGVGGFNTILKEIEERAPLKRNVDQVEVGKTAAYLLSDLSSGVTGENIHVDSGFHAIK
Experimental: FabI enzyme inhibition assays were carried out in half-area, 384-well microtitre plates. Compounds were evaluated in 40-μl assay mixtures containing 100 mM NaADA, pH 6.5 (ADA=N-[2-acetamido]-2iminodiacetic acid), 250 μM crotonoyl-CoA, 625 μM NADH and 50 μg/ml S. aureus ATCC 29213 FabI Inhibitors were typically varied over the range of 50 to 0.39 μM. The reaction mixtures were incubated for 30 minutes at room temperature and the reaction was stopped by adding 200 mM Tris buffer (pH 9.0) to create a pH-shift. The consumption of NADH was monitored by measuring the change in absorbance at […]. By comparing sample readings to those of negative (absence of compound) and positive (absence of enzyme) controls, the percent inhibition of enzymatic activity of the compounds was determined. A best-fit curve is fitted by a minimum of squares method. From this an IC50-value (expressed in μg/ml), resulting in 50% inhibition of enzymatic activity, was obtained.

[2] = tested on: Staphylococcus aureus ATCC 29213; test: Antibacterial susceptibility testing: IC90 determination (STA); assay type: cell-based; conditions: ATCC29213, S. aureus ATCC 29213, 90% inhibitory concentration for bacterial growth, read-out: STA (361.159) IC90
Experimental: (§1) The following bacteria were used: Staphylococcus aureus ATCC 29213, methicillin-resistant Staphylococcus aureus (MRSA) ATCC 700788 and Escherichia coli ATCC 35218. The bacteria used in this study were grown overnight in flasks containing 100 ml Mueller-Hinton broth (Difco cat. nr. 0757-17) in sterile de-ionized water, with shaking, at 37° C. Stocks were store at −70° C. until use.
(§2) Bacteria were incubated on a tryptic soy agar plate containing 5% sheep blood (Becton Dickinson cat. nr. 254053) for 18-24 hours at 35° C. in aerobic conditions (first passage). For the second passage, fresh Mueller-Hinton broth is inoculated with 5-10 colonies and grown overnight at 35° C. until turbidity (reaching log-phase) in aerobic conditions is reached. The bacterial suspension is then adjusted to 0.5 McFarland density and further diluted 1:100 in Mueller Hinton broth medium. This is used as inoculum.
(§3) MIC assays were performed by the broth microdilution method in a 96-well format (flat-bottom microtitre plates) with a final volume of 0.1 ml Mueller Hinton broth containing two-fold serial dilutions of compounds and inoculated with 5×10^5 CFU/ml of bacteria (standard inoculum size according to CLSI guidelines). Inhibitors are typically varied over the range of 63 to 0.49 μM. The final DMSO concentration in the assay was 1.25% (maximum tolerable DMSO concentration=6%). In the assays where the effect of human serum on the activity of the compounds against S. aureus was tested, human serum was added at a final concentration of 10%. The plates were incubated at 35° C. for 16-20 hours. At the end of incubation the bacterial growth was quantified fluorometrically. For this, resazurin was added to all wells and the plates were re-incubated. The incubation time is dependent on the type of bacteria. A change in color from blue to pink indicated the growth of bacteria. The fluorescence was read in computer-controlled fluorometer (Fluoroskan Ascent FL, Labsystems) at an excitation wavelength 540 nm and an emission wavelength of 590 nm. The % growth inhibition achieved by the compounds was calculated according to standard methods. The IC90 (expressed in μg/ml) was defined as the 90% inhibitory concentration for bacterial growth. A panel of reference compounds were simultaneously tested for QC approval.

[3] = Cytotoxicity MTT assay (TOX HELAM); assay type: cell-based; conditions: human, HelaM cells, read-out: TOX HELAM (222.125) CC50
Experimental: Cytotoxicity of the compounds was evaluated using the MTT assay. Human HelaM cells grown in 96-well plates were exposed to serial dilutions of the tested compounds (final volume of 0.2 ml) and incubated for 72 hours at 37° C. and 5% CO2. Inhibitors are typically varied over the range of 25 to 0.8 μM. The final DMSO concentration in the assay is 0.5%. MTT (3-(4,5-Dimethylthiazol-2-yl)-2,5-diphenyltetrazolium bromide, a tetrazole) was added and reduced to purple formazan only in living cells. Solubilization of the formazan crystals was achieved by adding 100 μl 2-propanol. Cell viability was determined by measuring the absorbance of the reduced formazan, giving a purple color, at 540 nm and 690 nm. The absorbance measured at 690 nm was automatically subtracted from the absorbance at 540 nm, to eliminate the effects of non-specific absorption. The percent cytotoxicity achieved by the compounds was calculated according to standard methods. Cytotoxicity is reported as CC50, the concentration that causes a 50% reduction in cell viability.
The results are depicted in the table D2 below (TOX HELAM).

S. aureus = test: Antibacterial susceptibility testing: IC90 determination with 10% human serum (STA + 10% HS); assay type: cell-based; conditions: Staphylococcus aureus; S. aureus with human serum at final concentration of 10%; read-out: STA + 10% HS (361.169) IC90
Experimental: as §1, §2, §3
The results are depicted in the table D2 below (STA+10% HS).

SMILES | IC50 [1] [nM] | IC90 [2] [µg/mL] | CC50 at 72 h [3] [µg/mL] | IC90 (S. aureus) [µg/mL]
O=C1CCc2cc(/C=C/C(=O)N3CCCC(Cc4ccccc4)CC3)cnc2N1 (centres unmarked) [Co. No. 3] | 976 | 3.94 (≈ 10.1 µM) | > 9.78 | 11.2
O=C1CCc2cc(/C=C/C(=O)N3CCCC(c4ccccc4)CC3)cnc2N1 (centres unmarked) [Co. No. 4] | 666 | 3.42 (≈ 9.11 µM) | > 9.43 | 3.54
O=C1CCc2cc(/C=C/C(=O)N3CC=C(Cc4ccccc4)CCC3)cnc2N1 [Co. No. 5] |  | 4.66 (≈ 12 µM) | > 9.73 | 10.9
COc1cccc(C2=CCN(C(=O)/C=C/c3cnc4c(c3)CCC(=O)N4)CCC2)c1 [Co. No. 6] |  | 3.21 (≈ 7.96 µM) | > 10.1 | 6.32
Cc1ccccc1C1=CCN(C(=O)/C=C/c2cnc3c(c2)CCC(=O)N3)CCC1 [Co. No. 7] | 1140 | 1.47 (≈ 3.79 µM) | > 9.73 | 2.97
Cc1ccccc1C1=CCCN(C(=O)/C=C/c2cnc3c(c2)CCC(=O)N3)CC1 [Co. No. 8] | 852 | 0.69 (≈ 1.78 µM) | 9.3 (≈ 24 µM) | 0.84
COc1ccccc1C1=CCN(C(=O)/C=C/c2cnc3c(c2)CCC(=O)N3)CCC1 [Co. No. 9] | 967 | 0.99 (≈ 2.45 µM) | > 10.1 | 1.48
O=C1CCc2cc(/C=C/C(=O)N3CC=C(c4cccc(Cl)c4)CCC3)cnc2N1 [Co. No. 12] | 1250 | 0.71 (≈ 1.74 µM) | 8.23 (≈ 20.2 µM) | 4.37
COc1ccc(F)cc1C1=CCN(C(=O)/C=C/c2cnc3c(c2)CCC(=O)N3)CCC1 [Co. No. 13] | 1380 | 1.43 (≈ 3.39 µM) | > 10.6 | 3.05
Cc1ccc(F)cc1C1=CCCN(C(=O)/C=C/c2cnc3c(c2)CCC(=O)N3)CC1 [Co. No. 15] | 789 | 0.39 (≈ 0.962 µM) | 8.57 (≈ 21.1 µM) | 1.02
Cc1ccc(C)c(C2=CCN(C(=O)/C=C/c3cnc4c(c3)CCC(=O)N4)CCC2)c1 [Co. No. 16] | 946 | 1.49 (≈ 3.71 µM) | 9.09 (≈ 22.6 µM) | 3.01
Cc1ccc(C)c(C2=CCCN(C(=O)/C=C/c3cnc4c(c3)CCC(=O)N4)CC2)c1 [Co. No. 17] | 946 | 0.33 (≈ 0.822 µM) | 4.11 (≈ 10.2 µM) | 0.72
O=C1CCc2cc(/C=C/C(=O)N3CC=C(c4ccc(Cl)cc4)CCC3)cnc2N1 [Co. No. 18] | 1420 | 1.52 (≈ 3.73 µM) | 6.85 (≈ 16.8 µM) | 5.08
O=C1CCc2cc(/C=C/C(=O)N3CC=C(c4ccccc4Cl)CCC3)cnc2N1 [Co. No. 20] | 785 | 0.63 (≈ 1.54 µM) | 8.52 (≈ 20.9 µM) | 1.15
O=C1CCc2cc(/C=C/C(=O)N3CCC=C(c4ccccc4Cl)CC3)cnc2N1 [Co. No. 21] | 932 | < 0.2 | 9.24 (≈ 22.7 µM) | 0.36
O=C1CCc2cc(/C=C/C(=O)N3CC=C(c4ccccc4F)CCC3)cnc2N1 [Co. No. 22] | 664 | 0.59 (≈ 1.51 µM) | 12.5 (≈ 32 µM) | 1.03
O=C1CCc2cc(/C=C/C(=O)N3CCC=C(c4ccccc4F)CC3)cnc2N1 [Co. No. 23] | 1070 | 0.18 (≈ 0.46 µM) | > 9.83 | 0.35
O=C1CCc2cc(/C=C/C(=O)N3CCC=C(c4ccc(Cl)cc4)CC3)cnc2N1 [Co. No. 24] | 1910 | 1.52 (≈ 3.73 µM) | 7.25 (≈ 17.8 µM) | 6.17
COc1ccc(C2=CCN(C(=O)/C=C/c3cnc4c(c3)CCC(=O)N4)CCC2)cc1 [Co. No. 25] | 2130 | 3.06 (≈ 7.58 µM) | > 10.1 | 5.83
O=C1CCc2cc(/C=C/C(=O)N3CC=C(c4ccccc4)CCC3)cnc2N1 [compound 1] | 964 |  |  | 
O=C1CCc2cc(/C=C/C(=O)N3CCCC(n4cccn4)CC3)cnc2N1 (centres unmarked) [compound 49] | 4570 |  |  | 
O=C1CCc2cc(/C=C/C(=O)N3CCCC(n4ccnn4)CC3)cnc2N1 (centres unmarked) [compound 50] | 2180 |  |  | 
